Among the data in patent publication US6858591B2, “Antibiotic AA 896 analogs” (Wyeth Holdings Corporation, priority 2001, dated 2005) are MIC values, retold here.

Assay in all cases: In vitro MIC, broth dilution
Type in all cases: cell-based

The subject of assay [1] is E. coli GC 4559. The note with it: Escherichia coli, GC4559.
For assay [2], the system named is E. coli GC 4560. As to conditions: Escherichia coli, GC4560.
Assay [3] deals with E. coli GC 3226. As to conditions: Escherichia coli, GC3226.
Assay [4] relates to S. marcescens GC 4077. The note with it: Serratia marcescens, GC4077.
The subject of assay [5] is C. albicans GC 3066. The note with it: Candida albicans, GC3066.
For assay [6], the system named is M. morganii GC 4531. As to conditions: Morganella morganii, GC4531.
Assay [7] concerns K. pneumoniae GC 4534. The note with it: Klebsiella pneumoniae, GC4534.
The test system of assay [8] is E. cloacae GC 3783. The note with it: Enterobacter cloacae, GC3783.
Assay [9] relates to P. aeruginosa GC 4532. As to conditions: Pseudomonas aeruginosa, GC4532.
The subject of assay [10] is CNS GC 4537. The essentials:
(§1)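 Test strains at 5×10^5 CFU/ml face antibiotic from 64 down to 0.06 μg/ml in Mueller-Hinton II, NCCLS broth dilution. MIC is read as the lowest growth-inhibiting concentration after 18 h at 35 °C.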

In assay [11] the test system is CNS GC 4538. The essentials: as §1
In assay [12] the test system is CNS GC 4547. The method in brief:
as §1

For assay [13], the system named is E. faecalis GC 2242. The note with it: Enterococcus faecalis, GC2242. The essentials:
as §1

The test system of assay [14] is E. faecalis GC 4555. The note with it: Enterococcus faecalis, GC4555. The method in brief:
as §1

Assay [15] has as its system E. faecalis GC 842. As to conditions: Enterococcus faecalis, GC842. The essentials:
as §1

The subject of assay [16] is S. aureus GC 1131. The note with it: Staphylococcus aureus, GC1131. The essentials: as §1
Assay [17] has as its system S. aureus GC 2216. The note with it: Staphylococcus aureus, GC2216. The essentials: as §1
Assay [18] relates to S. aureus GC 4536. The note with it: Staphylococcus aureus, GC4536. The method in brief:
as §1

The test system of assay [19] is E. coli GC 2203. As to conditions: Escherichia coli, GC2203.
Assay [20] has as its system P. aeruginosa GC 2214. As to conditions: Pseudomonas aeruginosa, GC2214.
Setting [21] is: S. marcescens GC 4077, read-out: MIC.
[22] abbreviates: C. albicans GC 3066, read-out: MIC.
Setting [23] is: M. morganii GC 4531, read-out: MIC.
[24] abbreviates: K. pneumoniae GC 4534, read-out: MIC.
Setting [25] is: E. cloacae GC 3783, read-out: MIC.
Setting [26] is: P. aeruginosa GC 4532, read-out: MIC.
Where [27] appears, read: E. faecalis GC 2242, read-out: MIC.
Where [28] appears, read: E. faecalis GC 4555, read-out: MIC.
The mark [29] stands for this setting: E. faecalis GC 842, read-out: MIC.
The mark [30] stands for this setting: S. aureus GC 1131, read-out: MIC.
Setting [31] is: S. aureus GC 2216, read-out: MIC.
Setting [32] is: S. aureus GC 4536, read-out: MIC.
[33] abbreviates: P. aeruginosa GC 2214, read-out: MIC.

Values after ≈ are worked out from the molar mass of the structure shown. Where two headings read alike, the source gives them in different places.

On to `COc1ccc(Cn2c(=O)ccn([C@@H]3OC([C@H](O)[C@H](NCCCNC(=O)[C@@H](N)Cc4ccccc4)C(=O)OC(C)(C)C)[C@@H](O[Si](C)(C)C(C)(C)C)[C@H]3O[Si](C)(C)C(C)(C)C)c2=O)cc1` (stereo partly drawn) [Example 13, tert-Butyl (2S,3R)-2-[(3-{[(2S)-2-amino-3-phenylpropanoyl]amino}propyl)amino]-3-[(3R,4R,5R)-3,4-bis{[tert-butyl(dimethyl)silyl]oxy}-5-(3-(4-methoxybenzyl)-2,4-dioxo-3,4-dihydro-1(2H)-pyrimidinyl)tetrahydro-2-furanyl]-3-hydroxypropanoate], for which the MIC (as a rule, the least concentration at which growth counts as inhibited) is more than 128 µg/mL in assay [1] (E. coli GC 4559, read-out: MIC); more than 128 µg/mL in assay [2] (E. coli GC 4560, read-out: MIC); more than 128 µg/mL in [3] (E. coli GC 3226, read-out: MIC); more than 128 µg/mL in [4] (setting [21]); more than 128 µg/mL in [5] (setting [22]); more than 128 µg/mL in assay [6] (setting [23]). Also, the MIC in assay [7] (setting [24]) was more than 128 µg/mL; in [8] (setting [25]) it was more than 128 µg/mL; in [9] (setting [26]) it was more than 128 µg/mL; in assay [10] (CNS GC 4537, read-out: MIC), more than 128 µg/mL; in [11] (CNS GC 4538, read-out: MIC), more than 128 µg/mL; in assay [12] (CNS GC 4547, read-out: MIC), more than 128 µg/mL. In addition, the minimum inhibitory concentration (MIC) in [13] (setting [27]) is 16 µg/mL (≈ 17.3 µM); in assay [14] (setting [28]) it was more than 128 µg/mL; in assay [15] (setting [29]), 128 µg/mL (≈ 138 µM); in assay [16] (setting [30]) it was more than 128 µg/mL; in assay [17] (setting [31]), more than 128 µg/mL; in [18] (setting [32]), more than 128 µg/mL. Besides, the MIC in assay [19] (E. coli GC 2203, read-out: MIC) was more than 128 µg/mL; in [20] (setting [33]), more than 128 µg/mL.

`COc1ccc(Cn2c(=O)ccn([C@@H]3OC([C@H](O)[C@H](NCCCNC(=O)[C@H](C)NC(=O)OCc4ccccc4)C(=O)OC(C)(C)C)[C@@H](O[Si](C)(C)C(C)(C)C)[C@H]3O[Si](C)(C)C(C)(C)C)c2=O)cc1` (stereo partly drawn) [Example 14, tert-Butyl (5S,12S)-12-[(R)-[(3R,4R,5R)-3,4-bis{[tert-butyl(dimethyl)silyl]oxy}-5-(3-(4-methoxybenzyl)-2,4-dioxo-3,4-dihydro-1(2H)-pyrimidinyl)tetrahydro-2-furanyl](hydroxy)methyl]-5-methyl-3,6-dioxo-1-phenyl-2-oxa-4,7,11-triazatridecan-13-oate]: the MIC in assay [1] (E. coli GC 4559, read-out: MIC) is more than 128 µg/mL; in assay [2] (E. coli GC 4560, read-out: MIC), 128 µg/mL (≈ 130 µM); in assay [3] (E. coli GC 3226, read-out: MIC), more than 128 µg/mL; in assay [4] (setting [21]), more than 128 µg/mL; in assay [5] (setting [22]), 128 µg/mL (≈ 130 µM); in [6] (setting [23]) it was 128 µg/mL (≈ 130 µM). Further, the MIC in assay [7] (setting [24]) is more than 128 µg/mL; in assay [8] (setting [25]) it was more than 128 µg/mL; in assay [9] (setting [26]), 128 µg/mL (≈ 130 µM); in [10] (CNS GC 4537, read-out: MIC), more than 128 µg/mL; in [11] (CNS GC 4538, read-out: MIC), more than 128 µg/mL; in assay [12] (CNS GC 4547, read-out: MIC), 128 µg/mL (≈ 130 µM). The MIC in [13] (setting [27]) was 128 µg/mL (≈ 130 µM); in assay [14] (setting [28]), 128 µg/mL (≈ 130 µM); in assay [15] (setting [29]), more than 128 µg/mL; in assay [16] (setting [30]), more than 128 µg/mL; in assay [17] (setting [31]), more than 128 µg/mL; in [18] (setting [32]), more than 128 µg/mL. In addition, the MIC in assay [19] (E. coli GC 2203, read-out: MIC) is more than 128 µg/mL; in [20] (setting [33]), 128 µg/mL (≈ 130 µM).

Take `COc1ccc(Cn2c(=O)ccn([C@@H]3OC([C@H](O)[C@H](NCCCNC(=O)[C@H](C)N)C(=O)OC(C)(C)C)[C@@H](O[Si](C)(C)C(C)(C)C)[C@H]3O[Si](C)(C)C(C)(C)C)c2=O)cc1` (stereo partly drawn) [Example 15, tert-Butyl (2S,3R)-2-[(3-{[(2S)-2-aminopropanoyl]amino}propyl)amino]-3-[(3R,4R,5R)-3,4-bis{[tert-butyl(dimethyl)silyl]oxy}-5-(3-(4-methoxybenzyl)-2,4-dioxo-3,4-dihydro-1(2H)-pyrimidinyl)tetrahydro-2-furanyl]-3-hydroxypropanoate]: the MIC was more than 128 µg/mL in assay [1] (E. coli GC 4559, read-out: MIC); 8 µg/mL (≈ 9.41 µM) in assay [2] (E. coli GC 4560, read-out: MIC); more than 128 µg/mL in [3] (E. coli GC 3226, read-out: MIC); more than 128 µg/mL in assay [4] (setting [21]); 64 µg/mL (≈ 75.3 µM) in assay [5] (setting [22]); 128 µg/mL (≈ 151 µM) in [6] (setting [23]). For the same compound, the minimum inhibitory concentration (MIC) was more than 128 µg/mL in assay [7] (setting [24]); more than 128 µg/mL in [8] (setting [25]); more than 128 µg/mL in assay [9] (setting [26]); 4 µg/mL (≈ 4.7 µM) in [10] (CNS GC 4537, read-out: MIC); 4 µg/mL (≈ 4.7 µM) in [11] (CNS GC 4538, read-out: MIC); 8 µg/mL (≈ 9.41 µM) in assay [12] (CNS GC 4547, read-out: MIC). For the same compound, the MIC in assay [13] (setting [27]), in assay [14] (setting [28]), in assay [15] (setting [29]), in assay [16] (setting [30]), in assay [17] (setting [31]) and in assay [18] (setting [32]) was 4 µg/mL (≈ 4.7 µM) in each case. The MIC in assay [19] (E. coli GC 2203, read-out: MIC) was more than 128 µg/mL; in assay [20] (setting [33]), 128 µg/mL (≈ 151 µM).

Turning to `COc1ccc(Cn2c(=O)ccn([C@@H]3OC([C@H](O)[C@H](NCCCNC(=O)[C@H](CC(=O)OCc4ccccc4)NC(=O)OCc4ccccc4)C(=O)OC(C)(C)C)[C@@H](O[Si](C)(C)C(C)(C)C)[C@H]3O[Si](C)(C)C(C)(C)C)c2=O)cc1` (stereo partly drawn) [Example 16, tert-Butyl (5S,12S)-5-[2-(benzyloxy)-2-oxoethyl]-12-[(R)-[(3R,4R,5R)-3,4-bis{[tert-butyl(dimethyl)silyl]oxy}-5-(3-(4-methoxybenzyl)-2,4-dioxo-3,4-dihydro-1(2H)-pyrimidinyl)tetrahydro-2-furanyl](hydroxy)methyl]-3,6-dioxo-1-phenyl-2-oxa-4,7,11-triazatridecan-13-oate], the MIC is more than 128 µg/mL in [1]; more than 128 µg/mL in assay [2]; more than 128 µg/mL in [3]; more than 128 µg/mL in [4]; 128 µg/mL (≈ 114 µM) in assay [5]; more than 128 µg/mL in assay [6]. Further, the MIC in [7], in assay [8], in [9], in assay [10], in [11] and in assay [12] was more than 128 µg/mL each time. Besides, the MIC was 128 µg/mL (≈ 114 µM) in [13]; more than 128 µg/mL in assay [14]; more than 128 µg/mL in [15]; more than 128 µg/mL in [16]; more than 128 µg/mL in [17]; more than 128 µg/mL in assay [18]. For the same compound, the MIC in assay [19] and in [20] was more than 128 µg/mL each time.

For the compound `COc1ccc(Cn2c(=O)ccn([C@@H]3OC([C@H](O)[C@H](NCCCNC(=O)[C@H](CCCCNC(=O)OCc4ccccc4)NC(=O)OCc4ccccc4)C(=O)OC(C)(C)C)[C@@H](O[Si](C)(C)C(C)(C)C)[C@H]3O[Si](C)(C)C(C)(C)C)c2=O)cc1` (stereo partly drawn) [Example 18, tert-Butyl (9S,16S)-9-{[(benzyloxy)carbonyl]amino}-16-[(R)-[(3R,4R,5R)-3,4-bis{[tert-butyl(dimethyl)silyl]oxy}-5-(3-(4-methoxybenzyl)-2,4-dioxo-3,4-dihydro-1(2H)-pyrimidinyl)tetrahydro-2-furanyl](hydroxy)methyl]-3,10-dioxo-1-phenyl-2-oxa-4,11,15-triazaheptadecan-17-oate], the MIC in assay [1], in [2], in assay [3], in [4], in [5] and in assay [6] was more than 128 µg/mL each time. The MIC in assay [7], in assay [8], in [9], in assay [10], in assay [11] and in assay [12] was more than 128 µg/mL each time. Besides, the MIC in assay [13] was 128 µg/mL (≈ 109 µM); in assay [14] it was more than 128 µg/mL; in assay [15], more than 128 µg/mL; in assay [16], more than 128 µg/mL; in [17], more than 128 µg/mL; in assay [18], more than 128 µg/mL. Moreover, the MIC in [19] and in assay [20] was more than 128 µg/mL each time.
